The values below come from PubChem BioAssay (NCI).

Holding throughout (assay): growth of human tumour cells (NCI), 48 h
Test [1] relates to HOP-62 NSCLC.
Test [2] deals with HOP-92 NSCLC.
Test [3] relates to HT29 colon.
Test [4] deals with K-562 leukemia.
The subject of test [5] is LOX IMVI melanoma.
The subject of test [6] is MCF7 breast.
The test system of test [7] is NCI-H226 lung.
The subject of test [8] is OVCAR-3 ovarian.
In test [9] the test system is SF-295 CNS.
Test [10] has as its system SK-MEL-28 melanoma.

SMILES strings stand for the structures.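 Compound exposure: 48 hours, 5 concentrations, 96-well plates. GI50 is the concentration that inhibits growth by half. The concentration for full growth arrest is given as TGI.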

For the molecule `O=c1cc(-c2ccccc2)[nH]c2ccccc12`, the GI50 in test [1] is 4.85 µM; in test [2] it was 0.571 µM; in [3] it was 0.39 µM; in test [5], 2.72 µM; in test [6] it was 0.383 µM; in [7], 7.4 µM. Besides, the results for the GI50 in [8] and in [9] were 0.342 µM and 0.458 µM, respectively. Besides, the TGI in [1] is over 100 µM; in test [2], over 100 µM; in test [3], over 34.8 µM; in test [4], over 100 µM; in [5] it was over 100 µM; in test [6], over 100 µM. In addition, the TGI in test [7], in test [9] and in test [10] was over 100 µM each time.

Consider `O=C1/C(=C\c2c[nH]c3ccccc23)c2ccccc2N1c1c(Cl)cccc1Cl`, for which the GI50 in test [1] was 1.38 µM; in test [2] it was 2 µM; in [3] it was 1.85 µM; in test [4] it was 2.28 µM; in test [5], 1.59 µM; in test [6], 1.74 µM. For the same molecule, the GI50 is 1.7 µM in test [7], 1.83 µM in test [8], 1.75 µM in test [9] and 2.14 µM in test [10]. For the same molecule, the TGI was determined as 2.75 µM in test [1]; 3.54 µM in [2]; 3.4 µM in [3]; 5.4 µM in [4]; 3.09 µM in [5]; 3.76 µM in [6]. Also, the TGI in test [7] is 3.65 µM; in test [8], 3.78 µM; in test [9], 3.51 µM; in test [10] it was 3.8 µM.

Regarding `CC1OC(O[C@@H]2OC=C(C=O)[C@@]3(O)CC[C@H](C)[C@@H]23)C(O)C(O)C1O` (stereo partly specified), the TGI in [1], in test [2], in [3], in test [4], in test [5] and in test [6] was over 100 µM in each case. For the same molecule, the TGI in test [7], in test [8], in test [9] and in test [10] was over 100 µM each time.

`CC1(C)CC(=O)c2c(C(F)(F)F)nn(-c3ccc(C(N)=O)c(NC4CCC(OC(=O)CN)CC4)c3)c2C1` (stereo unspecified): the GI50 is 0.0785 µM in test [1]; 0.124 µM in test [2]; 0.0321 µM in test [3]; 0.036 µM in test [4]; 0.0616 µM in test [5]; under 0.0183 µM in [6]. Moreover, the GI50 in test [7] is 0.103 µM; in test [8], 0.159 µM; in test [9], 0.0593 µM; in test [10], 0.0522 µM. The TGI was over 100 µM in test [1]; 1.04 µM in test [2]; over 100 µM in test [3]; over 79.4 µM in test [4]; 0.33 µM in test [5]; over 100 µM in test [6]. The TGI was over 56.4 µM in [7], over 100 µM in [8], over 100 µM in [9] and 20.6 µM in test [10].

In the case of `CCOC(=O)c1c2c(n3ccccc13)C(=O)c1ccccc1C2=O`, the TGI in [1], in test [2], in test [3], in test [4], in test [5] and in test [6] was over 100 µM each time. The TGI in test [7], in [8], in [9] and in [10] was over 100 µM in each case.

For `Cc1ccc(-c2cn3ccnc3c(-c3ccc(Cl)cc3)n2)cc1`, the GI50 in test [1] is 3.69 µM; in [2], 12.5 µM; in [3], 0.31 µM; in test [4], 0.0352 µM; in test [5], 0.384 µM; in [6] it was 0.28 µM. Further, the GI50 in test [7] was 10.3 µM; in test [8] it was 0.0412 µM; in test [9], 0.0268 µM; in [10], 0.518 µM. For the same molecule, the TGI is over 68.6 µM in test [1]; over 93.2 µM in [2]; 37.4 µM in test [3]; over 100 µM in test [4]; 12.4 µM in [5]; 19.2 µM in test [6]. Moreover, the TGI in [7] was over 100 µM; in test [9], 2.33 µM; in test [10], 44 µM.

Take `Nc1nc2c(c3ncncc13)C(c1cccc(C(F)(F)F)c1)Cc1ncncc1-2` (stereo unspecified): the GI50 in test [1] was 7.41 µM; in [2], 6.92 µM; in test [3], 4.2 µM; in [4] it was 3.74 µM; in test [5], 5.36 µM; in test [6] it was 2.96 µM. In addition, the GI50 is 9.61 µM in test [7], 3.03 µM in test [8], 2.99 µM in [9] and 11.4 µM in test [10]. The TGI in [1] was 47.2 µM; in [2] it was 57.9 µM; in test [3], 15.9 µM; in test [4], 22.8 µM; in test [5] it was 21.1 µM; in test [6] it was over 100 µM. In addition, the TGI in test [7] is 50.1 µM; in test [8], 11.4 µM; in [9], 10.7 µM; in [10] it was 26.9 µM.

For the molecule `COc1cc2c(c(OC)c1)C1c3ccccc3NC(=O)N1CC2` (stereo unspecified), the GI50 in test [1] was 3.28 µM; in [2] it was 7.25 µM; in [3], 3.37 µM; in test [4] it was 2.98 µM; in [5], 5.58 µM; in test [6], 3.13 µM. The GI50 in test [7] is 7.24 µM; in test [8] it was 3.27 µM; in test [9] it was 2.63 µM; in test [10], 9.41 µM. For the same molecule, the TGI in [1], in test [2], in test [3], in [4], in test [5] and in test [6] was over 100 µM in each case. Further, the TGI in test [7] was over 100 µM; in test [8] it was over 100 µM; in [9], 9.14 µM; in test [10] it was 28.5 µM.

For `Nc1ccccc1C#C/C=C\C#Cc1cccs1`, the GI50 in test [1] was 11.2 µM; in test [2] it was 6.4 µM; in test [3], 20.3 µM; in test [4] it was 3.53 µM; in test [5], 3.55 µM; in test [6] it was 2.34 µM. In addition, the GI50 in test [7] is 2.22 µM; in test [8], 4.85 µM; in test [9] it was 11.3 µM; in test [10], 24.6 µM. Further, the TGI is 33.2 µM in test [1]; 36.6 µM in test [2]; 57.3 µM in test [3]; over 100 µM in [4]; 14.7 µM in test [5]; over 100 µM in [6]. The TGI in test [7] was 16.9 µM; in test [8], 24.8 µM; in test [9], 46.1 µM; in test [10], over 67.5 µM.

Regarding `CCCC(C)c1cc(Cc2cc(Cl)cc(Cl)c2O)c(O)c(Cc2cc(Cl)cc(Cl)c2O)c1` (stereo unspecified), the GI50 was 2.7 µM in test [1]; 0.128 µM in [2]; 2.83 µM in test [3]; 0.34 µM in [4]; 2.44 µM in test [5]; 0.798 µM in test [6]. The GI50 in [7] is 1.94 µM; in test [8] it was 1.71 µM; in [9], 1.17 µM; in [10], 1.19 µM. In addition, the TGI in [1] turned out to be 12 µM; in [2], 0.496 µM; in [3], 11.2 µM; in test [4] it was 11.7 µM; in test [5], 8.89 µM; in [6] it was 10.2 µM. Further, the TGI is 6.61 µM in [7], 12.7 µM in test [8], 3.56 µM in [9] and 10.1 µM in test [10].

On to `COC(=O)[C@@]1(C)CC[C@]2(C)CC[C@]3(C)C4=CC=C5C(=CC(=O)C(O)=C5C)[C@]4(C)[C@@H](O)C[C@@]3(C)[C@@H]2C1`, for which the GI50 is 13.3 µM in [1]; 11.6 µM in test [2]; 10.8 µM in test [3]; 4.25 µM in test [4]; 10.4 µM in [5]; 11.3 µM in [6]. Also, the GI50 is 13.9 µM in test [7], 8.63 µM in [8], 13.2 µM in [9] and 9.43 µM in [10]. The TGI in test [1] came to 25.9 µM; in test [2] it was 23.2 µM; in test [3], 23.1 µM; in [4], 20.9 µM; in test [5], 21.3 µM; in [6], 23.9 µM. Also, the TGI in test [7] was found to be 24.9 µM; in test [8] it was 18.5 µM; in test [9], 28.4 µM; in [10], 19.7 µM.

On to `O=C1c2cccnc2C(=O)c2nc3cc(N4CCN(C5CC5)CC4)ccc3nc21`, for which the GI50 is 0.232 µM in [1]; 2.93 µM in test [2]; 0.658 µM in test [3]; 0.522 µM in test [4]; 0.416 µM in test [5]; 0.276 µM in [6]. The GI50 in test [7] is 1.46 µM; in [8], 1.24 µM; in [9] it was 0.41 µM; in test [10] it was 0.567 µM. For the same molecule, the TGI in test [1] was 1.05 µM; in test [2] it was 9.95 µM; in test [3], 4.96 µM; in [4] it was over 20.7 µM; in test [5] it was 1.86 µM; in [6], 1.78 µM. Also, the TGI was found to be 4.08 µM in [7], 3.67 µM in [8], 1.59 µM in [9] and 1.98 µM in [10].
